Data as given in the supplement of paper PMC10307832.

Legend:
Experiment in all cases: relative viability (nuclei count vs DMSO), 5 days (fraction); higher = more cells survive
NCI-H1792 = system: NCI-H1792
In short: (§1)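 Lung cancer cell lines in 1536-well plates got either a single drug or a fixed anchor-drug dose together with five library-drug doses (not always all listed) in √10 steps, by pin tool, on the day after seeding. Nuclei were counted after 5 days, and relative viability is the treated-to-vehicle ratio of nuclei counts. Values are medians of duplicate plates.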

NCI-H2087 = system: NCI-H2087
In short: as §1

SW 1573 = system: SW 1573
In short: as §1

NCI-H1650 = system: NCI-H1650
In short: as §1

NCI-H2126 = system: NCI-H2126
In short: as §1

HCC-78 = system: HCC-78
In short: as §1

LU99A = system: LU99A
In short: as §1

NCI-H1944 = system: NCI-H1944
In short: as §1

RERF-LC-KJ = system: RERF-LC-KJ
In short: as §1

EPLC-272H = system: EPLC-272H
In short: as §1

LCLC-97TM1 = system: LCLC-97TM1
In short: as §1

BEN = system: BEN
In short: as §1

LK-2 = system: LK-2
In short: as §1

NCI-H358 = system: NCI-H358
In short: as §1

NCI-H1734 = system: NCI-H1734
In short: as §1

SK-MES-1 = system: SK-MES-1
In short: as §1

HCC-827 = system: HCC-827
In short: as §1

ChaGo-K-1 = system: ChaGo-K-1
In short: as §1

EKVX = system: EKVX
In short: as §1

COR-L 105 = system: COR-L 105
In short: as §1

LOU-NH91 = system: LOU-NH91
In short: as §1

EMC-BAC-2 = system: EMC-BAC-2
In short: as §1

## Cc1cnc(-c2cnc(NCCNc3ccc(C#N)cn3)nc2-c2ccc(Cl)cc2Cl)[nH]1 + Nc1nc2[nH]cc(CCc3ccc(C(=O)N[C@@H](CCC(=O)O)C(=O)O)cc3)c2c(=O)[nH]1 [Pemetrexed] (partner 0.2 µM)
NCI-H1792; first compound 0.08 µM
  relative viability: 0.946
NCI-H1792; first compound 0.253 µM
  relative viability: 0.728
NCI-H1792; first compound 0.8 µM
  relative viability: 0.775
NCI-H1792; first compound 2.53 µM
  relative viability: 0.724
NCI-H2087; first compound 0.08 µM
  relative viability: 0.714
NCI-H2087; first compound 0.8 µM
  relative viability: 0.641
NCI-H2087; first compound 2.53 µM
  relative viability: 0.511
SW 1573; first compound 0.08 µM
  relative viability: 1.06
SW 1573; first compound 0.253 µM
  relative viability: 0.797
SW 1573; first compound 0.8 µM
  relative viability: 0.551
SW 1573; first compound 2.53 µM
  relative viability: 0.364
NCI-H1650; first compound 0.08 µM
  relative viability: 0.356
NCI-H1650; first compound 0.253 µM
  relative viability: 0.361
NCI-H1650; first compound 0.8 µM
  relative viability: 0.315
NCI-H1650; first compound 2.53 µM
  relative viability: 0.289
NCI-H2126; first compound 0.08 µM
  relative viability: 0.706
NCI-H2126; first compound 0.253 µM
  relative viability: 0.642
NCI-H2126; first compound 0.8 µM
  relative viability: 0.634
NCI-H2126; first compound 2.53 µM
  relative viability: 0.618
HCC-78; first compound 0.08 µM
  relative viability: 0.893
HCC-78; first compound 0.253 µM
  relative viability: 0.839
HCC-78; first compound 0.8 µM
  relative viability: 0.897
HCC-78; first compound 2.53 µM
  relative viability: 0.938
LU99A; first compound 0.08 µM
  relative viability: 0.177
LU99A; first compound 0.253 µM
  relative viability: 0.201
LU99A; first compound 0.8 µM
  relative viability: 0.191
LU99A; first compound 2.53 µM
  relative viability: 0.198
NCI-H1944; first compound 0.08 µM
  relative viability: 0.604
NCI-H1944; first compound 0.8 µM
  relative viability: 0.633
NCI-H1944; first compound 2.53 µM
  relative viability: 0.678
RERF-LC-KJ; first compound 0.08 µM
  relative viability: 0.496
RERF-LC-KJ; first compound 0.253 µM
  relative viability: 0.458
RERF-LC-KJ; first compound 0.8 µM
  relative viability: 0.4
RERF-LC-KJ; first compound 2.53 µM
  relative viability: 0.424
EPLC-272H; first compound 0.08 µM
  relative viability: 0.388
EPLC-272H; first compound 0.253 µM
  relative viability: 0.293
EPLC-272H; first compound 0.8 µM
  relative viability: 0.344
EPLC-272H; first compound 2.53 µM
  relative viability: 0.276
LCLC-97TM1; first compound 0.08 µM
  relative viability: 0.176
LCLC-97TM1; first compound 0.253 µM
  relative viability: 0.183
LCLC-97TM1; first compound 0.8 µM
  relative viability: 0.173
LCLC-97TM1; first compound 2.53 µM
  relative viability: 0.188
BEN; first compound 0.08 µM
  relative viability: 0.787
BEN; first compound 0.253 µM
  relative viability: 0.751
BEN; first compound 0.8 µM
  relative viability: 0.771
BEN; first compound 2.53 µM
  relative viability: 0.802
LK-2; first compound 0.08 µM
  relative viability: 0.242
LK-2; first compound 0.253 µM
  relative viability: 0.252
LK-2; first compound 2.53 µM
  relative viability: 0.253
NCI-H358; first compound 0.08 µM
  relative viability: 0.168
NCI-H358; first compound 0.253 µM
  relative viability: 0.182
NCI-H358; first compound 0.8 µM
  relative viability: 0.184
NCI-H358; first compound 2.53 µM
  relative viability: 0.16
NCI-H1734; first compound 0.08 µM
  relative viability: 0.445
NCI-H1734; first compound 0.253 µM
  relative viability: 0.371
NCI-H1734; first compound 0.8 µM
  relative viability: 0.395
NCI-H1734; first compound 2.53 µM
  relative viability: 0.323
SK-MES-1; first compound 0.08 µM
  relative viability: 0.932
SK-MES-1; first compound 0.253 µM
  relative viability: 0.895
SK-MES-1; first compound 0.8 µM
  relative viability: 0.977
SK-MES-1; first compound 2.53 µM
  relative viability: 0.99
HCC-827; first compound 0.08 µM
  relative viability: 0.27
HCC-827; first compound 0.253 µM
  relative viability: 0.267
HCC-827; first compound 0.8 µM
  relative viability: 0.245
HCC-827; first compound 2.53 µM
  relative viability: 0.269
ChaGo-K-1; first compound 0.08 µM
  relative viability: 0.252
ChaGo-K-1; first compound 0.253 µM
  relative viability: 0.265
ChaGo-K-1; first compound 0.8 µM
  relative viability: 0.259
ChaGo-K-1; first compound 2.53 µM
  relative viability: 0.248
EKVX; first compound 0.08 µM
  relative viability: 0.455
EKVX; first compound 0.253 µM
  relative viability: 0.358
EKVX; first compound 0.8 µM
  relative viability: 0.339
COR-L 105; first compound 0.08 µM
  relative viability: 1.25
COR-L 105; first compound 0.253 µM
  relative viability: 1.06
COR-L 105; first compound 0.8 µM
  relative viability: 0.903
COR-L 105; first compound 2.53 µM
  relative viability: 0.832
LOU-NH91; first compound 0.08 µM
  relative viability: 0.376
LOU-NH91; first compound 0.253 µM
  relative viability: 0.383
LOU-NH91; first compound 0.8 µM
  relative viability: 0.399
LOU-NH91; first compound 2.53 µM
  relative viability: 0.349
EMC-BAC-2; first compound 0.08 µM
  relative viability: 0.419
EMC-BAC-2; first compound 0.253 µM
  relative viability: 0.43
EMC-BAC-2; first compound 0.8 µM
  relative viability: 0.393
EMC-BAC-2; first compound 2.53 µM
  relative viability: 0.368
